{
  "source": "ChEMBL document CHEMBL4828774",
  "about": "“Novel PRMT5 Inhibitors for Treating Cancer” (ACS Med Chem Lett, 2021)",
  "data": [
    {"test": "Cytotoxicity against human HCT116-MTAP null cells assessed as reduction in cell viability incubated for 6 days by CellTiter-Glo luminescent assay", "type": "functional, cell-based", "conditions": "144 h", "units": {"IC50": "nM"}, "values": [
      {"smiles": "Cc1cc2cc(C(=O)N(Cc3ccc(Br)cn3)[C@H](C)c3ncccn3)ccc2nc1N", "IC50": 15},
      {"smiles": "Cc1cc2cc(C(=O)N(Cc3ccc(C(F)(F)F)cn3)[C@H](C)c3cccc(F)n3)ccc2nc1N", "IC50": 13},
      {"smiles": "Cc1cc2cc(C(=O)N(Cc3ccc(C(F)(F)F)cn3)[C@@H]3CCCc4nccnc43)ccc2nc1N", "IC50": 12},
      {"smiles": "Cc1cc2cc(C(=O)N(Cc3ccc(C(F)(F)F)cn3)[C@@H]3CCCc4cn[nH]c43)ccc2nc1N", "IC50": 10},
      {"smiles": "Cc1cc2cc(C(=O)N(Cc3ccc(C(F)(F)F)cn3)[C@@H]3CCOc4ccc(F)nc43)ccc2nc1N", "IC50": 13},
      {"smiles": "C[C@H](c1ncccn1)N(Cc1ccc(C(F)(F)F)nn1)C(=O)c1cnc2nc(N)c(I)cc2c1", "IC50": 15}
    ]}
  ]
}
